# Publication PMC8213057, “Targeting ALK2: An Open Science Approach to Developing Therapeutics for the Treatment of Diffuse Intrinsic Pontine Glioma” (Journal of Medicinal Chemistry, 2020)
# How the values were obtained:
# [1] = target: RON/MST1R (Homo sapiens, UniProt Q04912); experiment: biochemical; settings: read-out: % enzyme activity, 1 μM; Run 1, Run 2
# [2] = target: RIPK3 (Homo sapiens, UniProt Q9Y572); settings: 1 μM; Run 1, Run 2
# [3] = target: TIE2/TEK (Homo sapiens, UniProt Q02763); experiment: biochemical; settings: read-out: % enzyme activity, 1 μM; Run 1, Run 2
# [4] = target: T1, MKK7 (Homo sapiens, UniProt O14733); experiment: biochemical; settings: read-out: % enzyme activity, 1 μM; Run 1, Run 2
# T1 sequence (O14733 1-419): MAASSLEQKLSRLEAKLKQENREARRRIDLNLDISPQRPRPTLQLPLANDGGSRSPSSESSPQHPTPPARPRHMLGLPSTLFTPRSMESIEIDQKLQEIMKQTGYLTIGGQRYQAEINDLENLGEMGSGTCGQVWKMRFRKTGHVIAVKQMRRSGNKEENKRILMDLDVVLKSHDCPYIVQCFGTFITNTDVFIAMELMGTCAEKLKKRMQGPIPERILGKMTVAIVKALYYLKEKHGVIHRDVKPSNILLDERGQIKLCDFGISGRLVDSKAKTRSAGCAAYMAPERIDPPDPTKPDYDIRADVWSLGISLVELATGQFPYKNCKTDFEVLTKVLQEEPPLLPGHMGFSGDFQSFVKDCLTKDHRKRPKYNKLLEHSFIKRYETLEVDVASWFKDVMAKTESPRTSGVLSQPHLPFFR
# [5] = target: T2, PKCnu/PRKD3 (Homo sapiens, UniProt O94806); experiment: biochemical; settings: read-out: % enzyme activity, 1 μM; Run 1, Run 2
# T2 sequence (O94806 1-890): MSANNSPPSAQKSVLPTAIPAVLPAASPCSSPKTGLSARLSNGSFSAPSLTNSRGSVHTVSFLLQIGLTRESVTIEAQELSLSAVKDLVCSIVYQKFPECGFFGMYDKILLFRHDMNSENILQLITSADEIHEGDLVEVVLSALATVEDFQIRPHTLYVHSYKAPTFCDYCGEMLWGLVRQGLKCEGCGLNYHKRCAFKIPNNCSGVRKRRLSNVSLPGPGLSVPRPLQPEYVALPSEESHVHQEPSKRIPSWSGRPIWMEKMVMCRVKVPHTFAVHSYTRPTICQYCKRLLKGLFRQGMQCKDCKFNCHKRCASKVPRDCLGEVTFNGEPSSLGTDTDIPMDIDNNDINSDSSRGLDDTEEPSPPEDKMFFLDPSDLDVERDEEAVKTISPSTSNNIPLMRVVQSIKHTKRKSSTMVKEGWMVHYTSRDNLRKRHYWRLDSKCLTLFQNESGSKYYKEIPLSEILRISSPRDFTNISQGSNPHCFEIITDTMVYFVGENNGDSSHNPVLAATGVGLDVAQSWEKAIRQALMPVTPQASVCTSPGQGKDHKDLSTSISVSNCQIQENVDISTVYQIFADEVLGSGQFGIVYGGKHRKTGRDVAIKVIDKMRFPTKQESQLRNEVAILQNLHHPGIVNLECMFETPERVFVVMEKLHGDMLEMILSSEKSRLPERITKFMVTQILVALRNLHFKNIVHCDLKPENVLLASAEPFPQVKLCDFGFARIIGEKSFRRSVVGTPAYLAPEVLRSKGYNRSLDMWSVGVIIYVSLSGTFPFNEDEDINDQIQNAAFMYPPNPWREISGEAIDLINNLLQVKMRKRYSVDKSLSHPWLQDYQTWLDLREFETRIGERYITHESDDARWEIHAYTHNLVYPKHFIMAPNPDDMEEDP
# [6] = target: FYN (Homo sapiens, UniProt P06241); experiment: biochemical; settings: read-out: % enzyme activity, 1 μM; Run 1, Run 2
# [7] = target: T3, P38g (Homo sapiens, UniProt P53778); experiment: biochemical; settings: read-out: % enzyme activity, 1 μM; Run 1, Run 2
# T3 sequence (P53778 1-367): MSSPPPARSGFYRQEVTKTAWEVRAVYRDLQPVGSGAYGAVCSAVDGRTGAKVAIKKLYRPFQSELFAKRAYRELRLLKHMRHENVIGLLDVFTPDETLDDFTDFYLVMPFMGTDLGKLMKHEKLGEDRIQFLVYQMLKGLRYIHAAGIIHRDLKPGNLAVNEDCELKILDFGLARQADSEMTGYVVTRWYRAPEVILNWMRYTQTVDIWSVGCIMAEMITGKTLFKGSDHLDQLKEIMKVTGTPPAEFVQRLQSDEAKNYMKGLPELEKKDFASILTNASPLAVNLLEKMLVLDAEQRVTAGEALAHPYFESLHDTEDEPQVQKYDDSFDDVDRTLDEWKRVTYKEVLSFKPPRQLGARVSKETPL
# [8] = target: PLK3 (Homo sapiens, UniProt Q9H4B4); settings: 1 μM; Run 1, Run 2
# [9] = target: T4, CK1a1L (Homo sapiens, UniProt Q8N752); settings: 1 μM; Run 1, Run 2
# T4 sequence (Q8N752 1-337): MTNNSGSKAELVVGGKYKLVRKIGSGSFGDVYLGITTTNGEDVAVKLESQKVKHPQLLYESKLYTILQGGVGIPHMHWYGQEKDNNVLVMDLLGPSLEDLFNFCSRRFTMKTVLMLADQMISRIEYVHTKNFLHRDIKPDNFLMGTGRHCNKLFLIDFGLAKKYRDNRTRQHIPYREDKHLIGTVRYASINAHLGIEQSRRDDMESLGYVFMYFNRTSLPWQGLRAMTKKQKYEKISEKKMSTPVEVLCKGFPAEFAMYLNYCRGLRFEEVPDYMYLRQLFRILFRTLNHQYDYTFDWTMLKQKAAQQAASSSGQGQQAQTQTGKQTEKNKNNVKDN
# [10] = target: T5, NEK3 (Homo sapiens, UniProt P51956); experiment: biochemical; settings: read-out: % enzyme activity, 1 μM; Run 1, Run 2
# T5 sequence (P51956 1-506): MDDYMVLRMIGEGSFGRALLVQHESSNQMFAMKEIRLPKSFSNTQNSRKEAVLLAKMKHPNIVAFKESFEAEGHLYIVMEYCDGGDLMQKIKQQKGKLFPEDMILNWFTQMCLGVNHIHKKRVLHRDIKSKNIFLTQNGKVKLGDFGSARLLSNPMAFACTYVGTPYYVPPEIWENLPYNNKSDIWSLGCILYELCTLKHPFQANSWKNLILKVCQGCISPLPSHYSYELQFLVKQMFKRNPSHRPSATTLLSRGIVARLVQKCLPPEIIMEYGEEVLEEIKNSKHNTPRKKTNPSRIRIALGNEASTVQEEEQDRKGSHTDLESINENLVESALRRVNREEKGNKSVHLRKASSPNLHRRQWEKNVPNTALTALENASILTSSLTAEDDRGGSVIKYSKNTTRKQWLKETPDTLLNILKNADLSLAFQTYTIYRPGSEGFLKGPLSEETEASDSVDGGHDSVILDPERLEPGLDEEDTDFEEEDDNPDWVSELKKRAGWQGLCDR
# Sequence of RON/MST1R (Q04912 25-1400): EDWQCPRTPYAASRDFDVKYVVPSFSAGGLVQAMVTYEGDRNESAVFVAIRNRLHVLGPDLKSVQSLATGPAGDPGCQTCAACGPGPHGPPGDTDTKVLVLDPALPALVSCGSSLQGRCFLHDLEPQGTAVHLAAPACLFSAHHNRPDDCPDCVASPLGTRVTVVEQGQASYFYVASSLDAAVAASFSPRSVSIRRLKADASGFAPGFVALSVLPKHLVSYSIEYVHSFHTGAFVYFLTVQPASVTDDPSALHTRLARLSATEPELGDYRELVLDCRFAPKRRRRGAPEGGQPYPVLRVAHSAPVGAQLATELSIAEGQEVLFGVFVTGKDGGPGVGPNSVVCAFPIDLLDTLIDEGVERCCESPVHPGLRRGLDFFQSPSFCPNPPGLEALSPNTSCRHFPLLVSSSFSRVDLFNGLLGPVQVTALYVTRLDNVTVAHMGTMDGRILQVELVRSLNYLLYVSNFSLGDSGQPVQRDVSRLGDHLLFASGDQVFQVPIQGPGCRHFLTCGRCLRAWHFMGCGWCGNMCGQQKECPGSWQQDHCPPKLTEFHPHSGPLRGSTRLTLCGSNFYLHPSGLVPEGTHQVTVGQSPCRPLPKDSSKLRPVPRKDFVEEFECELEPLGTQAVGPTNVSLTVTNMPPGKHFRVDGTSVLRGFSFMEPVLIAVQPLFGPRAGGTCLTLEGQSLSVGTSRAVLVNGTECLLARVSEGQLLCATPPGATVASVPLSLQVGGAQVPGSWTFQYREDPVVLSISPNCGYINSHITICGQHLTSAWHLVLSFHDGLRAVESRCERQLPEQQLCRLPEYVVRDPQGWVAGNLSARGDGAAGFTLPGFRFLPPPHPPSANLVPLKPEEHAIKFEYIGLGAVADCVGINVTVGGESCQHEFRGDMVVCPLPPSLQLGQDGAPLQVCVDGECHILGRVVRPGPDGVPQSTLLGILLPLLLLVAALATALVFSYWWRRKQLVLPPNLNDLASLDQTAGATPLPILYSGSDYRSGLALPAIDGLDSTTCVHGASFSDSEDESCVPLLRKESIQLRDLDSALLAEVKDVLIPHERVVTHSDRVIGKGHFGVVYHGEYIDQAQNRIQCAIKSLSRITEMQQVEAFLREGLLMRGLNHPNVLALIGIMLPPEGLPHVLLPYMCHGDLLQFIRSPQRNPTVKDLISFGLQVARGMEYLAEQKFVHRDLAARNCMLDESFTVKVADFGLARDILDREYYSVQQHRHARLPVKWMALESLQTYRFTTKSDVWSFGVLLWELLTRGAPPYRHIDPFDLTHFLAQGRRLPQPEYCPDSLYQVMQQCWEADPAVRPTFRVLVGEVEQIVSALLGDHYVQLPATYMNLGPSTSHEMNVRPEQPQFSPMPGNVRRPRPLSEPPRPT
# Sequence of FYN (P06241 whole entry): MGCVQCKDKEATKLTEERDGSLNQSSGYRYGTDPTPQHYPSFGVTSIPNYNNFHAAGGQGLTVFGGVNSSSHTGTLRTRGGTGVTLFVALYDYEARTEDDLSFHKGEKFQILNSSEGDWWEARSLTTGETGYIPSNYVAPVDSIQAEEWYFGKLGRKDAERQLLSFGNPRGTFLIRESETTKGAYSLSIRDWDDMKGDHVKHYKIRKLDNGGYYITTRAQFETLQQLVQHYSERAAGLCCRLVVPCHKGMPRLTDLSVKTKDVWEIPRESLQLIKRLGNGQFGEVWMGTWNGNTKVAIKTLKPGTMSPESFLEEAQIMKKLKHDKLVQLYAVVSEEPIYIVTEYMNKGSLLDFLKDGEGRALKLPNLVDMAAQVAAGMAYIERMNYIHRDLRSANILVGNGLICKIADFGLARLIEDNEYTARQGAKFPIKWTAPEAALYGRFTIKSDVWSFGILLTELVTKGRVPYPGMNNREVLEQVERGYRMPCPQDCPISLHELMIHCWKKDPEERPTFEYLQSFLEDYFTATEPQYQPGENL
# Sequence of TIE2/TEK (Q02763 23-1124): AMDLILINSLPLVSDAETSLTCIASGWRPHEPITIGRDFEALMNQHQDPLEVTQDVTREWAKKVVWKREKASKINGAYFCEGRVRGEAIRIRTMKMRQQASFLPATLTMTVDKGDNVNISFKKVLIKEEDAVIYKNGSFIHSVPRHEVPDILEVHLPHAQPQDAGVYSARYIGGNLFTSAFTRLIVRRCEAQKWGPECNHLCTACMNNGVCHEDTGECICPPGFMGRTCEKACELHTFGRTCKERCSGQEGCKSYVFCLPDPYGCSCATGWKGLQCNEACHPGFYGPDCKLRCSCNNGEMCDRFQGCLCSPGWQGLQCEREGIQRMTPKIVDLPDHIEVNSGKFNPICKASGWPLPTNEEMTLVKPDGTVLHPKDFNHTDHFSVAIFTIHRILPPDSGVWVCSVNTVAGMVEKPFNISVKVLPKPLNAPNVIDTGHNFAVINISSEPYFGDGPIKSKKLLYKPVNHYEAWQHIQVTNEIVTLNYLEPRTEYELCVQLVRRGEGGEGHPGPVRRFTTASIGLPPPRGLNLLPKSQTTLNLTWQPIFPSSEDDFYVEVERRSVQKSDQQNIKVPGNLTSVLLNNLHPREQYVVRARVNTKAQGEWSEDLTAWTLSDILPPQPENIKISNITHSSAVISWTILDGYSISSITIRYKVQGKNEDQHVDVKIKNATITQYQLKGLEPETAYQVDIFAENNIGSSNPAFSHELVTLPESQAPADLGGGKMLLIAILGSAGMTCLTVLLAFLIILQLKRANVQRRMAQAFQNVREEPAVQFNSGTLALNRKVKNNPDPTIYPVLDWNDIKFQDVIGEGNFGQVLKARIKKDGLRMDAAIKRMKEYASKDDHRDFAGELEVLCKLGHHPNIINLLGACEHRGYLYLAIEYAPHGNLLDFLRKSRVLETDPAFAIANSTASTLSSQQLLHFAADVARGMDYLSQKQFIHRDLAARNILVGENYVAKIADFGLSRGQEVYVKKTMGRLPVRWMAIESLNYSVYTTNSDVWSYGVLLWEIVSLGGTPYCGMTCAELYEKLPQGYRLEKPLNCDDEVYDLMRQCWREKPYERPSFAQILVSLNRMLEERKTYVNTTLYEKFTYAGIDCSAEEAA
# Sequence of RIPK3 (Q9Y572 whole entry): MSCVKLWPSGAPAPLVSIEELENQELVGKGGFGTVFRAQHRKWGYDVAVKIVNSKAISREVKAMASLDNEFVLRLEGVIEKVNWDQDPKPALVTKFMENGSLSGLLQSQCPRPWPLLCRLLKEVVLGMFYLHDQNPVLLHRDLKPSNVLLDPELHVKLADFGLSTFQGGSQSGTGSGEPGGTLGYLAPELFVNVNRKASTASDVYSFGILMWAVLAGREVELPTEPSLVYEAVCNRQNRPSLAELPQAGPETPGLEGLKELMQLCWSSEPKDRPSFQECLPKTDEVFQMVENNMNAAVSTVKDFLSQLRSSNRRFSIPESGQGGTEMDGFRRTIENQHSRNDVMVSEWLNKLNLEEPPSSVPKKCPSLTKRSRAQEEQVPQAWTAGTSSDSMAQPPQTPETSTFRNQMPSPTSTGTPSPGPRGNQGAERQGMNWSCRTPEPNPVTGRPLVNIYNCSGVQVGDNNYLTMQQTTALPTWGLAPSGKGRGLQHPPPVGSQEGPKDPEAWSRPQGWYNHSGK
# Sequence of PLK3 (Q9H4B4 whole entry): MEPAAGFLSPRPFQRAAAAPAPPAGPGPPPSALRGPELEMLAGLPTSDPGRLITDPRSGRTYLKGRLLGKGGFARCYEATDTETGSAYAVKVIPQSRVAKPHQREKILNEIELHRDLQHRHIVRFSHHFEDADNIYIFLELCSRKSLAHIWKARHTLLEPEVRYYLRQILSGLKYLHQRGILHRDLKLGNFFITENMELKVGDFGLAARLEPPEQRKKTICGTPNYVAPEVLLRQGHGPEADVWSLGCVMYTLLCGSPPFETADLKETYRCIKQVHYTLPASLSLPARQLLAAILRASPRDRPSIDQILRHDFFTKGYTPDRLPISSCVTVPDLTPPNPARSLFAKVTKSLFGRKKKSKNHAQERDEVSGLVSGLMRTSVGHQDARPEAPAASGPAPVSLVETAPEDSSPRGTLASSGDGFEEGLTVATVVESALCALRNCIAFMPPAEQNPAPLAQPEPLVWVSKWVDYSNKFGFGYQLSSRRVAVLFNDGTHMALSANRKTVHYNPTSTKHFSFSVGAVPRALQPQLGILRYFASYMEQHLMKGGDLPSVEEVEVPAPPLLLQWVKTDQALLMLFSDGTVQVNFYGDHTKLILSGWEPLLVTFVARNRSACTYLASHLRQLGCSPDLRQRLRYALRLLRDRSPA
Structure (SMILES),remaining activity at 1 µM [1] [%],% enzyme activity [2] [%],remaining activity at 1 µM [3] [%],remaining activity at 1 µM [4] [%],remaining activity at 1 µM [5] [%],remaining activity at 1 µM [6] [%],remaining activity at 1 µM [7] [%],% enzyme activity [8] [%],% enzyme activity [9] [%],remaining activity at 1 µM [10] [%]
"COc1cc(-c2cncc(-c3ccc(N4CCN(C)CC4)cc3)c2C)cc(F)c1C(N)=O [Compound 26a, 2-Fluoro-6-methoxy-4-(4-methyl-5-(4-(4-methylpiperazin-1-yl)phenyl)pyridin-3-yl)benzamide]",98.7,101.40,93.8,93,82.2,99.9,110,93.70,97.55,88.3
"COc1cc(-c2cncc(-c3ccc(N4C[C@@H](C)N(C)[C@@H](C)C4)cc3)c2C)cc(F)c1C(N)=O [Compound 26c, 2-Fluoro-6-methoxy-4-(4-methyl-5-(4-((3R,5S)-3,4,5-trimethylpiperazin-1-yl)phenyl)pyridin-3-yl)benzamide]",105,102.83,93.4,98.7,89,97,108,94.47,99.15,96.2
